From US20110263429A1, “Pesticidal Combinations” (priority 2008, published 2011)

Assays:
[1] = test system: cutworm (Spodoptera littoralis); experiment: Field seed-treatment trial, plant count per plot; assay type: in vivo; settings: field with heavy Spodoptera littoralis population, plants per plot counted 13 days after planting, 4 replicates, fludioxonil + mefenoxam base treatment
Excerpt: (§1) An unexpected effect exists whenever the action of an active ingredient combination is greater than the sum of the actions of the individual components.
(§2) The action to be expected E for a given active ingredient combination obeys the so-called COLBY formula and can be calculated as follows (COLBY, S. R. “Calculating synergistic and antagonistic responses of herbicide combination”. Weeds, Vol. 15, pages 20-22; 1967):
(§3) ppm=milligrams of active ingredient (=a.i.) per liter of spray mixture X=% action by active ingredient A) using p ppm of active ingredient Y=% action by active ingredient B) using q ppm of active ingredient.
(§4) According to COLBY, the expected (additive) action of active ingredients A)+B) using p+q ppm of active ingredient is
(§5) If the action actually observed (O) is greater than the expected action (E), then the action of the combination is super-additive, i.e. there is a synergistic effect.
In a field having a heavy population of cutworm (Spodoptera littoralis), seeds are planted that have the following treatments: • (a) a compound of formula (X) (0.6 mg ai/seed) • (b) thiamethoxam (0.63 mg ai/seed) • (c) a compound of formula (X) (0.6 mg ai/seed)+thiamethoxam (0.63 mg ai/seed)
For all treatments, including check, fludioxonil (2.5 g ai/100 kg seeds) and mefenoxam (1.0 g ai/100 kg seeds) were used as a fungicide base treatment. […]

[2] = test system: cutworm (Agrotis sp.); experiment: Field seed-treatment trial, cutworm larvae count per plot; assay type: in vivo; settings: for Control (%) Observed: seed treatment, field with heavy Agrotis sp. population, larvae per plot counted 22 days after planting, 4 replicates, fludioxonil + mefenoxam base treatment
Excerpt: as §1, §2, §3, §4, §5
In a field having a heavy population of cutworm (Agrotis sp.), seeds are planted that have the following treatments: • (a) a compound of formula (X) (0.6 mg ai/seed) • (b) thiamethoxam (0.63 mg ai/seed) • (c) a compound of formula (X) (0.6 mg ai/seed)+thiamethoxam (0.63 mg ai/seed)
For all treatments, including check, fludioxonil (2.5 g ai/100 kg seeds) and mefenoxam (1.0 g ai/100 kg seeds) were used as a fungicide base treatment.
Assessment: Count number larvae per plot (22 days after planting) Number of replicates: 4

| Compound | % Control Observed [1] [%] | Control (%) Observed [2] [%] | Control (%) Colby expected ([2]; expected (additive) action by COLBY formula, Agrotis sp., 22 days after planting) [%] |
| --- | --- | --- | --- |
| CN1COCN(Cc2cnc(Cl)s2)/C1=N\[N+](=O)[O-] [(b), thiamethoxam] | 40 | 31 |  |
| mixture of 5,6-Dihydro-3′-O-ethyl Spinosyn J (RN: 187166-40-1 and 3′-O-Ethyl Spinosyn L (RN: 187166-15-0) in a weight ratio of 50-90%:10-50% [(a)] | 48 | 50 | 15 |
